Laboratory results taken from PubChem BioAssay (NCI).
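These data come from cells grown in 96-well plates and exposed to compound for 48 hours at five concentrations. GI50: concentration for 50% inhibition of growth. TGI: concentration producing complete growth inhibition.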

Experiments:
Assay in all cases: NCI-60 cell line screen, 48 h
SNB-75 CNS = tested on: SNB-75 CNS
SF-268 CNS = tested on: SF-268 CNS
HCC-2998 colon = tested on: HCC-2998 colon
TK-10 renal = tested on: TK-10 renal
OVCAR-5 ovarian = tested on: OVCAR-5 ovarian
HCT-15 colon = tested on: HCT-15 colon
SF-295 CNS = tested on: SF-295 CNS
LOX IMVI melanoma = tested on: LOX IMVI melanoma
HOP-92 NSCLC = tested on: HOP-92 NSCLC
BT-549 breast = tested on: BT-549 breast

Structure (SMILES)	TGI (SNB-75 CNS)	TGI (SF-268 CNS)	TGI (HCC-2998 colon)	TGI (TK-10 renal)	TGI (OVCAR-5 ovarian)	TGI (HCT-15 colon)	TGI (SF-295 CNS)	TGI (LOX IMVI melanoma)	TGI (HOP-92 NSCLC)	TGI (BT-549 breast)	GI50 (LOX IMVI melanoma)	GI50 (SNB-75 CNS)	GI50 (HOP-92 NSCLC)	GI50 (SF-268 CNS)	GI50 (HCC-2998 colon)	GI50 (TK-10 renal)	GI50 (OVCAR-5 ovarian)	GI50 (HCT-15 colon)	GI50 (SF-295 CNS)	GI50 (BT-549 breast)
CCc1ccccc1-n1c2nc(=O)n(C)c(=O)c-2nc2ccccc21	28.8 µM	24 µM	25.6 µM	35.4 µM	34.3 µM	23.4 µM	24 µM													
CC12CCc3ccccc3C1=Nc1ccccc12 (configuration not stated)	> 100 µM	> 100 µM		> 100 µM	> 100 µM	> 100 µM	> 100 µM	> 100 µM	54 µM	95.6 µM										
CCOC(=O)CC1=NC(=Nc2cc(Cl)ccc2Cl)SC1	> 100 µM	> 100 µM	> 100 µM	> 100 µM	> 100 µM	> 100 µM	> 100 µM	> 100 µM	> 100 µM											
CC1CCCN(CC(O)CN2CCCc3ccccc32)C1 (configuration not stated)	> 100 µM	> 100 µM		> 100 µM	> 100 µM	> 100 µM	> 100 µM	> 100 µM		> 100 µM										
CCOC(=O)CNC(=O)CCCn1c(=O)c2c3ccccc3n(C)c2n2nnc(-c3ccccc3)c12	3.59 µM	> 50 µM	> 50 µM	20.9 µM	> 50 µM	> 50 µM	17.4 µM	> 50 µM	14.8 µM		25.1 µM	1.12 µM	3.6 µM	14.2 µM	> 50 µM	8.71 µM	27.7 µM	> 50 µM	4.83 µM	
O=C(N/C(=C\c1ccc(Br)cc1)c1nc2ccccc2s1)c1ccccc1	> 100 µM	> 100 µM		> 100 µM	> 100 µM	> 100 µM		> 100 µM	> 100 µM											
CCOC(=O)c1cc2cc(NC(=O)c3cc4cc([N+](=O)[O-])ccc4n3C)ccc2n1C		> 100 µM		70.7 µM	61.9 µM	51.6 µM	> 100 µM	28 µM	85 µM	35.3 µM	13.1 µM		34.9 µM	49.1 µM		19.7 µM	21.7 µM	15.4 µM	30.1 µM	11.6 µM
COc1ccc(OC)c(-c2cc(-c3ccccc3)nn2-c2ccc(S(N)(=O)=O)cc2)c1		27.5 µM	37.9 µM	26 µM	28.8 µM	17.1 µM	29.2 µM		50.1 µM	38.9 µM			15.5 µM	12.6 µM	23 µM	12.7 µM	15 µM	5.07 µM	13.6 µM	17.7 µM
COC(=O)C1=C(c2cc(OC)c(OC)c(OC)c2)OC(c2cc(OC)c(OC)c(OC)c2)C1COC(C)=O (configuration not stated)	> 100 µM	> 100 µM	> 100 µM	> 100 µM	> 100 µM	> 100 µM	> 100 µM	57 µM	> 100 µM											
COc1ccc2c(c1OC)-c1c(c3ccc([N+](=O)[O-])cc3c(=O)n1CCCN=[N+]=[N-])C2=O		> 100 µM	> 100 µM	> 100 µM	> 100 µM	> 100 µM	28.4 µM	> 100 µM	> 100 µM	> 100 µM	5.99 µM		20.3 µM	30.3 µM	79.9 µM	> 100 µM	> 100 µM	> 100 µM	3.11 µM	> 100 µM
